Source: US20230127944A1, “BROAD-SPECTRUM CARBAPENEMS” (priority 2019, published 2023)
In brackets after ≈: the same amount, converted by molar mass. Like-named read-outs stand apart in the source and are kept apart here.

Experiments:
Format in all cases: cell-based
S. aureus USA 300 = test: broth microdilution MIC assay, S. aureus USA300; conditions: Staphylococcus aureus
Outline: (§1)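 CLSI broth microdilution in cation-adjusted Mueller-Hinton broth: colonies from Mueller Hinton II agar grown 3-5 h at 37° C, inoculum set by OD600 to 5×10^5 CFU/mL final. Compounds in 2-fold serial dilutions; plates incubated 16-20 hours at 37° C. MIC read visually as lowest concentration without growth.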

S. aureus USA 600 = test: broth microdilution MIC assay, S. aureus USA600; conditions: Staphylococcus aureus
Outline: as §1

[1] = tested on: P. aeruginosa ATCC 27853 (wild-type/QC strain); test: broth microdilution MIC assay, P. aeruginosa 27853
Outline: as §1

[2] = tested on: P. aeruginosa 35151 (hyper-permeable strain); test: broth microdilution MIC assay, P. aeruginosa 35151; conditions: Pseudomonas aeruginosa, read-out: MIC, P. aeruginosa 35151
Outline: as §1

[3] = tested on: S. aureus ATCC 33591 (methicillin-resistant); test: broth microdilution MIC assay, S. aureus 33591; conditions: Staphylococcus aureus
Outline: as §1

[4] = tested on: E. coli ATCC 25922 (wild-type/QC strain); test: broth microdilution MIC assay, E. coli 25922
Outline: as §1

[5] = tested on: P. aeruginosa ΔmexAB-OprM (an efflux pump knockout); test: broth microdilution MIC assay, P. aeruginosa ΔmexAB-OprM; conditions: Pseudomonas aeruginosa, read-out: MIC, P. aeruginosa ΔmexAB-OprM
Outline: as §1

P. aeruginosa Paeβ-17 = test: broth microdilution MIC assay, P. aeruginosa Paeβ-17; conditions: Pseudomonas aeruginosa, read-out: MIC, P. aeruginosa Paeβ-17
Outline: as §1

[6] = S. aureus USA300 (MRSA), read-out: MIC, S. aureus USA300
[7] = S. aureus USA600 (MRSA), read-out: MIC, S. aureus USA600
[8] = Pseudomonas aeruginosa, ATCC27853; read-out: MIC, P. aeruginosa 27853
[9] = ATCC33591, S. aureus 33591, methicillin-resistant, read-out: MIC, S. aureus 33591
[10] = Escherichia coli, ATCC25922; read-out: MIC, E. coli 25922

Structure (SMILES)	MIC (S. aureus USA 300; MRSA / USA300, read-out: MIC, S. aureus USA300)	MIC (S. aureus USA 600; MRSA / USA600, read-out: MIC, S. aureus USA600)	MIC ([1]; Pseudomonas aeruginosa, ATCC27853, read-out: MIC, P. aeruginosa 27853)	MIC [2]	MIC ([3]; ATCC33591, read-out: MIC, S. aureus 33591)	MIC ([4]; Escherichia coli, ATCC25922, read-out: MIC, E. coli 25922)	MIC [5]	MIC (P. aeruginosa Paeβ-17)	MIC (S. aureus USA 300; [6])	MIC (S. aureus USA 600; [7])	MIC [1, 8]	MIC [3, 9]	MIC [4, 10]
C[C@@H](O)[C@H]1C(=O)N2C(C(=O)O)=C(S[C@H]3C[C@@H](N4CCC(N)CC4)C3)[C@H](C)[C@H]12 [Example 54]	8 to 32 µg/mL (≈ 20.2 to 80.9 µM)	1 to 4 µg/mL (≈ 2.53 to 10.1 µM)	8 to 32 µg/mL (≈ 20.2 to 80.9 µM)	< 1 µg/mL	8 to 32 µg/mL (≈ 20.2 to 80.9 µM)	< 1 µg/mL	1 to 4 µg/mL (≈ 2.53 to 10.1 µM)	8 to 32 µg/mL (≈ 20.2 to 80.9 µM)	–	–	–	–	–
C[C@@H](O)[C@H]1C(=O)N2C(C(=O)O)=C(S[C@@H]3CC[C@@H](NC4CCN(C(=N)N)CC4)C3)[C@H](C)[C@H]12 [Example 55, (4R,5S,6S)-3-(((1R,3R)-3-((1-carbamimidoylpiperidin-4-yl)amino)cyclopentyl)thio)-6-((R)-1-hydroxyethyl)-4-methyl-7-oxo-1-azabicyclo[3.2.0]hept-2-ene-2-carboxylic acid]	–	–	–	< 1 µg/mL	–	–	1 to 4 µg/mL (≈ 2.21 to 8.86 µM)	8 to 32 µg/mL (≈ 17.7 to 70.9 µM)	1 to 4 µg/mL (≈ 2.21 to 8.86 µM)	1 to 4 µg/mL (≈ 2.21 to 8.86 µM)	8 to 32 µg/mL (≈ 17.7 to 70.9 µM)	1 to 4 µg/mL (≈ 2.21 to 8.86 µM)	< 1 µg/mL
C[C@@H](O)[C@H]1C(=O)N2C(C(=O)O)=C(S[C@@H]3CCN(C[C@H]4CC[C@H](N)CC4)C3)[C@H](C)[C@H]12 [Example 56, (4R,5S,6S)-3-(((R)-1-(((1R,4R)-4-aminocyclohexyl)methyl)pyrrolidin-3-yl)thio)-6-((R)-1-hydroxyethyl)-4-methyl-7-oxo-1-azabicyclo[3.2.0]hept-2-ene-2-carboxylic acid]	–	–	–	< 1 µg/mL	–	–	1 to 4 µg/mL (≈ 2.36 to 9.44 µM)	8 to 32 µg/mL (≈ 18.9 to 75.5 µM)	1 to 4 µg/mL (≈ 2.36 to 9.44 µM)	1 to 4 µg/mL (≈ 2.36 to 9.44 µM)	1 to 4 µg/mL (≈ 2.36 to 9.44 µM)	1 to 4 µg/mL (≈ 2.36 to 9.44 µM)	< 1 µg/mL
C[C@@H](O)[C@H]1C(=O)N2C(C(=O)O)=C(S[C@@H]3CCN([C@H]4CC[C@@H](CN)CC4)C3)[C@H](C)[C@H]12 [Example 57, (4R,5S,6S)-3-(((R)-1-((1S,4S)-4-(aminomethyl)cyclohexyl)pyrrolidin-3-yl)thio)-6-((R)-1-hydroxyethyl)-4-methyl-7-oxo-1-azabicyclo[3.2.0]hept-2-ene-2-carboxylic acid]	–	–	–	< 1 µg/mL	–	–	1 to 4 µg/mL (≈ 2.36 to 9.44 µM)	8 to 32 µg/mL (≈ 18.9 to 75.5 µM)	1 to 4 µg/mL (≈ 2.36 to 9.44 µM)	1 to 4 µg/mL (≈ 2.36 to 9.44 µM)	1 to 4 µg/mL (≈ 2.36 to 9.44 µM)	1 to 4 µg/mL (≈ 2.36 to 9.44 µM)	< 1 µg/mL
C[C@@H](O)[C@H]1C(=O)N2C(C(=O)O)=C(S[C@@H]3CCN([C@H]4CC[C@H](CN)CC4)C3)[C@H](C)[C@H]12 [Example 58, (4R,5S,6S)-3-(((R)-1-((1R,4R)-4-(aminomethyl)cyclohexyl)pyrrolidin-3-yl)thio)-6-((R)-1-hydroxyethyl)-4-methyl-7-oxo-1-azabicyclo[3.2.0]hept-2-ene-2-carboxylic acid]	–	–	–	< 1 µg/mL	–	–	1 to 4 µg/mL (≈ 2.36 to 9.44 µM)	8 to 32 µg/mL (≈ 18.9 to 75.5 µM)	1 to 4 µg/mL (≈ 2.36 to 9.44 µM)	1 to 4 µg/mL (≈ 2.36 to 9.44 µM)	1 to 4 µg/mL (≈ 2.36 to 9.44 µM)	1 to 4 µg/mL (≈ 2.36 to 9.44 µM)	< 1 µg/mL
C[C@@H](O)[C@H]1C(=O)N2C(C(=O)O)=C(S[C@H]3C[C@H](N[C@H]4CC[C@H](N)CC4)C3)[C@H](C)[C@H]12 [Example 59, (4R,5S,6S)-3-(((1R,3R)-3-(((1R,4R)-4-aminocyclohexyl)amino)cyclobutyl)thio)-6-((R)-1-hydroxyethyl)-4-methyl-7-oxo-1-azabicyclo[3.2.0]hept-2-ene-2-carboxylic acid]	–	–	–	< 1 µg/mL	–	–	1 to 4 µg/mL (≈ 2.44 to 9.77 µM)	8 to 32 µg/mL (≈ 19.5 to 78.1 µM)	1 to 4 µg/mL (≈ 2.44 to 9.77 µM)	8 to 32 µg/mL (≈ 19.5 to 78.1 µM)	8 to 32 µg/mL (≈ 19.5 to 78.1 µM)	1 to 4 µg/mL (≈ 2.44 to 9.77 µM)	< 1 µg/mL
C[C@@H](O)[C@H]1C(=O)N2C(C(=O)O)=C(S[C@H]3C[C@H](N[C@H]4CC[C@@H](N)CC4)C3)[C@H](C)[C@H]12 [Example 60, (4R,5S,6S)-3-(((1R,3R)-3-(((1S,4S)-4-aminocyclohexyl)amino)cyclobutyl)thio)-6-((R)-1-hydroxyethyl)-4-methyl-7-oxo-1-azabicyclo[3.2.0]hept-2-ene-2-carboxylic acid]	–	–	–	< 1 µg/mL	–	–	1 to 4 µg/mL (≈ 2.44 to 9.77 µM)	8 to 32 µg/mL (≈ 19.5 to 78.1 µM)	1 to 4 µg/mL (≈ 2.44 to 9.77 µM)	1 to 4 µg/mL (≈ 2.44 to 9.77 µM)	8 to 32 µg/mL (≈ 19.5 to 78.1 µM)	8 to 32 µg/mL (≈ 19.5 to 78.1 µM)	< 1 µg/mL
C[C@@H](O)[C@H]1C(=O)N2C(C(=O)O)=C(S[C@H]3C[C@@H](N[C@H]4CC[C@H](N)CC4)C3)[C@H](C)[C@H]12 [Example 61, (4R,5S,6S)-3-(((1S,3S)-3-(((1R,4S)-4-aminocyclohexyl)amino)cyclobutyl)thio)-6-((R)-1-hydroxyethyl)-4-methyl-7-oxo-1-azabicyclo[3.2.0]hept-2-ene-2-carboxylic acid]	–	–	–	< 1 µg/mL	–	–	1 to 4 µg/mL (≈ 2.44 to 9.77 µM)	8 to 32 µg/mL (≈ 19.5 to 78.1 µM)	1 to 4 µg/mL (≈ 2.44 to 9.77 µM)	1 to 4 µg/mL (≈ 2.44 to 9.77 µM)	1 to 4 µg/mL (≈ 2.44 to 9.77 µM)	1 to 4 µg/mL (≈ 2.44 to 9.77 µM)	< 1 µg/mL
C[C@@H](O)[C@H]1C(=O)N2C(C(=O)O)=C(S[C@H]3C[C@@H](N[C@H]4CC[C@@H](N)CC4)C3)[C@H](C)[C@H]12 [Example 62, (4R,5S,6S)-3-(((1S,3S)-3-(((1S,4R)-4-aminocyclohexyl)amino)cyclobutyl)thio)-6-((R)-1-hydroxyethyl)-4-methyl-7-oxo-1-azabicyclo[3.2.0]hept-2-ene-2-carboxylic acid]	–	–	–	< 1 µg/mL	–	–	1 to 4 µg/mL (≈ 2.44 to 9.77 µM)	8 to 32 µg/mL (≈ 19.5 to 78.1 µM)	1 to 4 µg/mL (≈ 2.44 to 9.77 µM)	1 to 4 µg/mL (≈ 2.44 to 9.77 µM)	1 to 4 µg/mL (≈ 2.44 to 9.77 µM)	1 to 4 µg/mL (≈ 2.44 to 9.77 µM)	< 1 µg/mL
C[C@@H](O)[C@H]1C(=O)N2C(C(=O)O)=C(S[C@@H]3CCN([C@H]4CC[C@@H](CNC(=N)N)CC4)C3)[C@H](C)[C@H]12 [Example 63, (4R,5S,6S)-3-(((R)-1-((1S,4S)-4-(guanidinomethyl)cyclohexyl)pyrrolidin-3-yl)thio)-6-((R)-1-hydroxyethyl)-4-methyl-7-oxo-1-azabicyclo[3.2.0]hept-2-ene-2-carboxylic acid]	–	–	–	< 1 µg/mL	–	–	1 to 4 µg/mL (≈ 2.15 to 8.59 µM)	8 to 32 µg/mL (≈ 17.2 to 68.7 µM)	1 to 4 µg/mL (≈ 2.15 to 8.59 µM)	1 to 4 µg/mL (≈ 2.15 to 8.59 µM)	1 to 4 µg/mL (≈ 2.15 to 8.59 µM)	1 to 4 µg/mL (≈ 2.15 to 8.59 µM)	< 1 µg/mL
C[C@@H](O)[C@H]1C(=O)N2C(C(=O)O)=C(S[C@@H]3CCN([C@H]4CC[C@H](CNC(=N)N)CC4)C3)[C@H](C)[C@H]12 [Example 64, (4R,5S,6S)-3-(((R)-1-((1R,4R)-4-(guanidinomethyl)cyclohexyl)pyrrolidin-3-yl)thio)-6-((R)-1-hydroxyethyl)-4-methyl-7-oxo-1-azabicyclo[3.2.0]hept-2-ene-2-carboxylic acid]	–	–	–	< 1 µg/mL	–	–	1 to 4 µg/mL (≈ 2.15 to 8.59 µM)	8 to 32 µg/mL (≈ 17.2 to 68.7 µM)	1 to 4 µg/mL (≈ 2.15 to 8.59 µM)	1 to 4 µg/mL (≈ 2.15 to 8.59 µM)	1 to 4 µg/mL (≈ 2.15 to 8.59 µM)	1 to 4 µg/mL (≈ 2.15 to 8.59 µM)	< 1 µg/mL
C[C@@H](O)[C@H]1C(=O)N2C(C(=O)O)=C(SC3CN([C@H]4CC[C@@H](CNC(=N)N)CC4)C3)[C@H](C)[C@H]12 [Example 65, (4R,5S,6S)-3-((1-((1S,4S)-4-(guanidinomethyl)cyclohexyl)azetidin-3-yl)thio)-6-((R)-1-hydroxyethyl)-4-methyl-7-oxo-1-azabicyclo[3.2.0]hept-2-ene-2-carboxylic acid]	–	–	–	< 1 µg/mL	–	–	1 to 4 µg/mL (≈ 2.21 to 8.86 µM)	8 to 32 µg/mL (≈ 17.7 to 70.9 µM)	1 to 4 µg/mL (≈ 2.21 to 8.86 µM)	1 to 4 µg/mL (≈ 2.21 to 8.86 µM)	1 to 4 µg/mL (≈ 2.21 to 8.86 µM)	1 to 4 µg/mL (≈ 2.21 to 8.86 µM)	< 1 µg/mL
C[C@@H](O)[C@H]1C(=O)N2C(C(=O)O)=C(SC3CN([C@H]4CC[C@H](CNC(=N)N)CC4)C3)[C@H](C)[C@H]12 [Example 66, (4R,5S,6S)-3-((1-((1R,4R)-4-(guanidinomethyl)cyclohexyl)azetidin-3-yl)thio)-6-((R)-1-hydroxyethyl)-4-methyl-7-oxo-1-azabicyclo[3.2.0]hept-2-ene-2-carboxylic acid]	–	–	–	< 1 µg/mL	–	–	1 to 4 µg/mL (≈ 2.21 to 8.86 µM)	8 to 32 µg/mL (≈ 17.7 to 70.9 µM)	1 to 4 µg/mL (≈ 2.21 to 8.86 µM)	1 to 4 µg/mL (≈ 2.21 to 8.86 µM)	1 to 4 µg/mL (≈ 2.21 to 8.86 µM)	1 to 4 µg/mL (≈ 2.21 to 8.86 µM)	< 1 µg/mL
C[C@@H](O)[C@H]1C(=O)N2C(C(=O)O)=C(S[C@H]3C[C@H](N[C@H]4CC[C@H](N)C4)C3)[C@H](C)[C@H]12 [Example 67, (4R,5S,6S)-3-(((1S,3R)-3-(((1S,3S)-3-aminocyclopentyl)amino)cyclobutyl)thio)-6-((R)-1-hydroxyethyl)-4-methyl-7-oxo-1-azabicyclo[3.2.0]hept-2-ene-2-carboxylic acid]	–	–	–	< 1 µg/mL	–	–	1 to 4 µg/mL (≈ 2.53 to 10.1 µM)	8 to 32 µg/mL (≈ 20.2 to 80.9 µM)	8 to 32 µg/mL (≈ 20.2 to 80.9 µM)	1 to 4 µg/mL (≈ 2.53 to 10.1 µM)	8 to 32 µg/mL (≈ 20.2 to 80.9 µM)	8 to 32 µg/mL (≈ 20.2 to 80.9 µM)	< 1 µg/mL
